In assay [1] the test system is MC-38. The assay is described as follows: The compound was tested for antitumor activity against mouse tumor C38 cells. Type of assay: functional.
Assay [2] in a line: The compound was tested for antitumor activity against human colon tumor H116 cells. Type of assay: functional.
Assay [3] in a line: The compound was tested for antitumor activity against human tumor H15 cells. Type of assay: functional.
The nature of assay [4]: The compound was tested for antitumor activity against normal cells (fibroblast). It counts as functional, Homo sapiens.
Assay [5] can be described thus: The compound was tested for antitumor activity against L1210 cells. Type of assay: functional, Mus musculus.
Assay [6] in a line: The compound was tested for antitumor activity against mouse tumor M17/Adr cells. It counts as functional.

SMILES strings stand for the structures.

With `Nc1ncnc2c1ncn2/C=C1\C(CO)C1(F)F` (configuration not stated), the Activity in assay [1] was 470; in assay [2], 200; in assay [3], 300; in assay [4] it was 130; in assay [5] it was 420; in assay [6], 370.

Take `Nc1ncnc2c1ncn2/C=C1/C(CO)C1(F)F` (configuration not stated): the Activity was 580 in assay [1]; 550 in assay [2]; 550 in assay [3]; 500 in assay [4]; 660 in assay [5]; 590 in assay [6].

Consider `Nc1ncnc2c1ncn2/C=C1/CC1CO` (configuration not stated), for which the Activity is recorded as 600 in assay [1]; 160 in assay [2]; 130 in assay [4]; 570 in assay [5]; 460 in assay [6].
